Data on ten compounds can be found in US7605160B2, “Pyrrolotriazine kinase inhibitors” (Bristol-Myers Squibb Company, priority 2006, dated 2009).

Molecules are shown by their SMILES.

One test deals with T1, TrkA (Homo sapiens, UniProt P04629).
T1 construct: The kinase domain of the human TrkA receptor is expressed in Sf9 insect cells as a histidine (His)-fusion protein; His; made in house; host or cells: Sf9 insect cells (baculovirus)
The test is described as follows: TrkA tyrosine kinase assay (33P phosphorylation of polyGluTyr by recombinant enzyme). The format is biochemical. The following applies: recombinant kinase domain of human TrkA, PGT substrate, 30 uM ATP. From the text: The ability of compounds of the present invention to inhibit tyrosine kinase activity of TrkA may be measured using a recombinant enzyme in an assay that measures the ability of compounds to inhibit the phosphorylation of the exogenous substrate, polyGluTyr (PGT, Sigma™, 4:1). The kinase domain of the human TrkA receptor is expressed in Sf9 insect cells as a histidine (His)-fusion protein using a baculovirus expression system. The protein is purified from the lysates of these cells using an Ni-NTA affinity column. After the recombinant enzyme is purified, it is activated by incubation with cold ATP. The enzyme assay is performed in a 96-well plate. Test compounds are first dissolved in dimethylsulfoxide (DMSO) and then serially-diluted in a 96-well plate. The serially-diluted compounds are transferred to the 96-well assay plate so that the final concentration of DMSO in the enzyme assay is 1.64%. All assay components are diluted in phosphorylation buffer (20 mm MOPS, 10 mM MgCl2, 1 mM EDTA, 0.015% Brij-35, 0.1 mg/ml BSA, 0.0025% Beta-Mercaptoethanol). The recombinant enzyme is added to the assay plate containing test compound and the reaction is initiated with a substrate solution containing a final concentration of 0.1 mg/ml PGT, 30 uM ATP, and 0.008 mCi/ml ^33P-gammaATP (3000 Ci/mmol)(Perkin Elmer™) After a 1 hour incubation at 30° C., the reaction is terminated with 10% TCA and incubated at 4° C. for 1 hour. The reaction is filtered onto a Unifilter® GF/C™ filter plate (Perkin Elmer™) that has been presoaked with 0.1M NaPyrophosphate. Microscint-20 (Perkin Elmer™) is then added to the dried filter plate and the captured ^33P-phosphorylated PGT is quantitated on a microscintillation plate counter (TopCount•NXT™ (Perkin Elmer™)). Inhibition of the kinase enzymatic activity by the test compound is detected by a reduction in scintillation, and the concentration of compound that is required to inhibit the signal by 50% is reported as the IC50 value for the test compound.

For another test, the target named is T2, TrkB (Homo sapiens, UniProt Q16620).
T2 construct: The kinase domain of the human TrkB receptor (amino acids 526-838); His; purchased Invitrogen; host or cells: insect cells
The test is described as follows: TrkB tyrosine kinase assay (33P phosphorylation of polyGluTyr by recombinant enzyme). The format is biochemical. The following applies: recombinant kinase domain of human TrkB (amino acids 526-838), PGT substrate, 30 uM ATP. As to the method: The ability of compounds of the present invention to inhibit tyrosine kinase activity of TrkB may be measured using a recombinant enzyme in an assay that measures the ability of compounds to inhibit the phosphorylation of the exogenous substrate, polyGluTyr (PGT, Sigma™, 4:1). The kinase domain of the human TrkB receptor (amino acids 526-838) is expressed in insect cells as a histidine (His)-fusion protein and is commercially available from Invitrogen™. The enzyme assay is performed in a 96-well plate. Test compounds are first dissolved in dimethylsulfoxide (DMSO) and then serially-diluted in a 96-well plate. The serially-diluted compounds are transferred to the 96-well assay plate so that the final concentration of DMSO in the enzyme assay is 1.64%. All assay components are diluted in phosphorylation buffer (20 mm MOPS, 10 mM MgCl2, 1 mM EDTA, 0.015% Brij-35, 0.1 mg/ml BSA, 0.0025% Beta-Mercaptoethanol). The recombinant enzyme is added to the assay plate containing test compound and the reaction is initiated with a substrate solution containing a final concentration of 0.1 mg/ml PGT, 30 uM ATP, and 0.008 mCi/ml ^33P-gammaATP (3000 Ci/mmol) (Perkin Elmer™). After a 1 hour incubation at 30° C., the reaction is terminated with 10% TCA and incubated at 4° C. for 1 hour. The reaction is filtered onto a Unifilter® GF/C™ filter plate (Perkin Elmer™) that has been presoaked with 0.1M NaPyrophosphate. Microscint-20(Perkin Elmer™) is then added to the dried filter plate and the captured ^33P-phosphorylated PGT is quantitated on a microscintillation plate counter (TopCount•NXT™ (Perkin Elmer™)). Inhibition of the kinase enzymatic activity by the test compound is detected by a reduction in scintillation, and the concentration of compound that is required to inhibit the signal by 50% is reported as the IC50 value for the test compound.

T2 sequence (Q16620 510-822): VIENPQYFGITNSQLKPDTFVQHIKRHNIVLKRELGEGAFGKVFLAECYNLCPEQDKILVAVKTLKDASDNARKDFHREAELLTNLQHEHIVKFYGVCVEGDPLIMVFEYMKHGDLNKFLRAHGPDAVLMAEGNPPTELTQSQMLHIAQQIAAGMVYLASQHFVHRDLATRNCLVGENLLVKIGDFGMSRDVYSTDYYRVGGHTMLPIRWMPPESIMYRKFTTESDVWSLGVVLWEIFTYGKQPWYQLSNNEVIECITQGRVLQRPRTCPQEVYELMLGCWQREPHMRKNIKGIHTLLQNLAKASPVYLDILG
T1 sequence (P04629 510-781 limits assumed): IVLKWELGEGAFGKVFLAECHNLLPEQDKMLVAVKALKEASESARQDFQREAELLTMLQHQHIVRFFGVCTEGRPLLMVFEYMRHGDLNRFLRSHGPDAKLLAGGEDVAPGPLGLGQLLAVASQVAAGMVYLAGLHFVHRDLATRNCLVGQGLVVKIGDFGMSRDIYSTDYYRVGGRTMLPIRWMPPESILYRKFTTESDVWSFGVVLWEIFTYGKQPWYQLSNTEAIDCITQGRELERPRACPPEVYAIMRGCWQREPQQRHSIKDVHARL

In the case of `C[C@H](Nc1nc(Nc2cc(C3CC3)n[nH]2)c2cccn2n1)c1ccc(F)cc1` [Compound 2, N^4-(3-cyclopropyl-1H-pyrazol-5-yl)-N^2-((1S)-1-(4-fluorophenyl)ethyl)pyrrolo[2,1-f][1,2,4]triazine-2,4-diamine], the results for the IC50 on TrkA and at TrkB were 0.0001 µM and 0.0003 µM, respectively.
Take `Cc1cc(Nc2nc(NC3CCCCC3)nn3cccc23)[nH]n1` [Compound 9, N^2-cyclohexyl-N^4-(5-methyl-1H-pyrazol-3-yl)pyrrolo[2,1-f] [1,2,4]triazine-2,4-diamine]: the values for the 50% inhibitory concentration (IC50) on TrkA and at TrkB were 0.074 µM and 0.225 µM, respectively.
Turning to `NC1CCCC(Nc2nc(Nc3cc(C4CC4)n[nH]3)c3cccn3n2)C1` (centres unmarked) [Compound 12, N^2-(3-aminocyclohexyl)-N^4-(3-cyclopropyl-1H-pyrazol-5-yl) pyrrolo[2,1-f][1,2,4]triazine-2,4-diamine], the results for the concentration for half-maximal inhibition (IC50) at TrkA and at TrkB were 0.006 µM and 0.035 µM, respectively.
With `C[C@H](Nc1nc(Nc2cc(-c3ccccc3)n[nH]2)c2cccn2n1)c1ccc(F)cc1` [Compound 28, N^2-((1S)-1-(4-fluorophenyl)ethyl)-N^4-(3-phenyl-1H-pyrazol-5-yl) pyrrolo[2,1-f][1,2,4]triazine-2,4-diamine], the IC50 on TrkA and on TrkB was 0.0007 µM in each case.
With `O[C@H]1CC[C@H](Nc2nc(Nc3cc(C4CC4)n[nH]3)c3cccn3n2)CC1` [Compound 38, trans-4-((4-((3-cyclopropyl-1H-pyrazol-5-yl)amino)pyrrolo[2,1-f] [1,2,4]triazin-2-yl)amino) cyclohexanol], the results for the IC50 at TrkA and on TrkB were 0.0005 µM and 0.0009 µM, respectively.
`CCC(O)CNc1nc(Nc2cc(C3CC3)n[nH]2)c2cccn2n1` (centres unmarked) [Compound 40, 1-((4-((3-cyclopropyl-1H-pyrazol-5-yl)amino)pyrrolo[2,1-f][1,2,4]triazin-2-yl)amino)-2-butanol]: the 50% inhibitory concentration (IC50) at TrkA was found to be 0.003 µM; on TrkB, 0.004 µM.
The corresponding values for `c1cc2c(Nc3cc(C4CC4)n[nH]3)nc(N[C@H]3CCNC3)nn2c1` [Compound 41, N^4-(3-cyclopropyl-1H-pyrazol-5-yl)-N^2-((3S)-3-pyrrolidinyl)pyrrolo [2,1-f][1,2,4]triazine-2,4-diamine] are 0.018 µM and 0.031 µM.
The corresponding values for `O=C(CNc1nc(Nc2cc(C3CC3)n[nH]2)c2cccn2n1)Nc1nccs1` [Compound 43, 2-((4-((3-cyclopropyl-1H-pyrazol-5-yl)amino)pyrrolo[2,1-f][1,2,4]triazin-2-yl)amino)-N-1,3-thiazol-2-ylacetamide] are 0.0003 µM and 0.0003 µM.
On the same counts, the results for `O=C(Nc1nccs1)[C@H](Cc1ccccc1)Nc1nc(Nc2cc(C3CC3)[nH]n2)c2cccn2n1` [Compound 44, (2S)-2-((4-((5-cyclopropyl-1H-pyrazol-3-yl)amino)pyrrolo[2,1-f][1,2,4]triazin-2-yl)amino)-3-phenyl-N-1,3-thiazol-2-ylpropanamide] are 0.001 µM and 0.002 µM.
With `CC(C)[C@H](CO)NC(=O)[C@H](C)Nc1nc(Nc2cc(C3CC3)n[nH]2)c2cccn2n1` [Compound 49, (2S)-2-((4-((3-cyclopropyl-1H-pyrazol-5-yl)amino)pyrrolo[2,1-f][1,2,4]triazin-2-yl)amino)-N-((1R)-1-(hydroxymethyl)-2-methylpropyl)propanamide], the concentration for half-maximal inhibition (IC50) was 0.012 µM on TrkA and 0.005 µM at TrkB.
